From patent US20220110985A1, “NUTRITIONAL COMPOSITION COMPRISING 2'FUCOSYLLACTOSE AND 3'GALACTOSYLLACTOSE” (N.V. Nutricia, priority 2019, published 2022) come the findings set out here.

One test relates to Bifidobacteria. The test is described as follows: Fecal slurry fermentation: total Bifidobacteria. The test is classed as cell-based. The method, then:
(§1) Anaerobic fermentation of fecal slurry samples was tested in a BioLector Pro microfluidics mini multifermentor. Faecal slurry samples were collected from breast fed infants and from formula fed infants. These faecal slurry samples were processed by adding 0.6 grams feces in 40 ml Baby Reichardt V.6 medium+mucus+Ammonium sulfate+lactate and acetate. The resulting solutions were inserted to the BioLector Pro microfluidics mini multifermentor. The test legs were supplemented with 3-GL, 2′-FL, 3′-GL+2′-FL, and GOS/FOS. The control leg was supplemented with sterile water.
A 32 well plate that can handle low pH was used. The wells of this plate were filled with fecal solution. 2.5% (w/v) of the different sterile carbohydrate solutions (3′-GL, 2′-FL, 2′-FL/3′-GL (2.0+0.5%). and Glucose were added to the fecal slurry according to a template.
The experiment was started, and pH setpoint was either 5.5 (facial inoculum from infant 1, vaginally born, breast fed) or pH 6.0 (Inoculum from infant 2, vaginally born, breast fed) with continuous pH regulation, and temperature 37° C., humidity 85%, OD control. At 4, 8 and 24 hours a sample is taken for CFU determination on TOS-propionate MUP agar (total Bifidobacteria), XLD agar for Salmonella enteriditis S29, and Simons citrate inositol agar for Klebsiella pneumonia K2 and for SCFA, D- and L Lactate and ammonia analysis. Fecal pellet was used for 16s DNA sequencing.

A further test deals with fecal slurry microbiota. The test is described as follows: Anaerobic fermentation of fecal slurry (BioLector Pro): acidification, microbiota composition. The test is classed as cell-based, human infant. Conditions: no pathogen spiking. The method, then: as §1
(§2) In addition the test legs were supplemented with Clostridium difficile C153 (difficile agar), Salmonella enteriditis S29 (XLD agar), Cronobacter sakasakii E71 (chromogenic agar) or Klebsiella pneumonia K2 (Simons citrate inositol agar). For every NDO and for the control also a pathogen free culture was prepared.
After fermentation the fermented solutions were tested for SCFA content (in particular acetic acid, propionic acid, butyric acid and isobutyric acid), ammonia content, lactate content and pathogen concentration. Also DNA-isolation+identification and 16s sequencing was performed to determine the composition of the microbiota.
A 32 well plate that can handle low pH was used. The wells of this plate were filled with fecal solution. […]

In test [1] the test system is human peripheral blood mononuclear cells (PBMCs). The test is described as follows: PBMC cell activity (WST-1). The conditions noted are these: after 24 h; non-stimulated and CD3/CD28 stimulated conditions. Type of test: cell-based. The method, then:
Isolation of PBMC from healthy donors: Human peripheral blood mononuclear cells (PBMC) from healthy donors were isolated from buffy coats (Sanquin, Amsterdam, the Netherlands). PBMC were obtained by centrifugation using Leucosep tubes (Greiner Bio-One). PBMC were collected and washed in PBS (Gibco, Thermo Fisher Technologies)+2% heat-inactivated FCS (Invitrogen), followed by hypotonic lysis of erythrocytes with sterile lysis buffer (0.15 M NH4Cl, 0.01 M KHCO3 and 0.1 mM EDTA, pH of 7.4 at 4° C., all from Merck, Darmstadt, Germany). After lysis, the PBMC were resuspended in freezing medium (70% RPMI 1640 medium (Gibco, Thermo Fisher Technologies) supplemented with 10% heat-inactivated FCS and 100 U/ml penicillin-streptomycin, 20% heat-inactivated FCS and 10% DMSO (Sigma)) and cryopreserved.
PBMC activation model: PBMC (0.2·10^6 cell/well) were cultured in 96-well flat bottom plates (Corning). For 24 hours the cells were pre-incubated with 2′-FL (Jennewein), 3′-GL (0-0.3% w/v; Carbosynth) or sodium butyrate (0.2 mM; Sigma Aldrich) and combinations thereof. Subsequently, the cells were CD3/CD28-activated (Pelicluster CD3 and Pelicluster CD28, Sanquin) for an additional 24 hours. After incubation, IFNγ was measured by ELISA in the supernatants (see below). To determine cell activity after stimulation, PBMC were incubated with cell proliferation reagent WST-1 (10 μl; Roche) and/or 10% Triton (5 μl; negative control). After 3 hours, absorbance was measured at OD450 nm and OD650 nm and cell activity was calculated according to manufacturer's instructions.
(In general: Tetrazolium dyes change colour on reduction, which living cells bring about.)

A further test relates to Caco-2 cell monolayer. The test is described as follows: DON-induced impairment of Caco-2 cell monolayer integrity (TEER, lucifer yellow flux). The conditions noted are these: for effect on DON-induced loss of epithelial barrier integrity (TEER, LY flux), in words: 24 h pretreatment (GLs 0.75 wt. %; 2′-FL 1 mg/ml), then DON 4.2 μM 24 h. Type of test: cell-based, human. How it is done:
Beta1,3′-galactosyl-lactose (beta3′-GL), beta1,4′-galactosyllactose (beta4′-GL) and beta1,6′-galactosyl-lactose (beta6′-GL) were obtained from Carbosynth (Berkshire, UK). Alpha1,3′-galactosyl-lactose (alpha3′-GL) was obtained from Elicityl (Crolles, France). Purified deoxydivalenol (DON) (D0156; Sigma Aldrich, St Luis, Mo., USA) was dissolved in pure ethanol and stored at −20° C. Human epithelial colorectal adenocarcinoma (Caco-2) cells were obtained from American […] (Code HTB-37) (Manasse, Va., USA, passage 90-102).
Caco-2 cells were used according to established methods. In brief: cells were cultured in Dulbecco's modified Eagle medium (DMEM) and seeded at a density of 0.3×10^5 cells into 0.3 cm^2 high pore density (0.4 μm) inserts with a polyethylene terephthalate membrane (BD Biosciences, Franklin Lakes, N.J., USA) placed in a 24-well plate. The Caco-2 cells were maintained in a humidified atmosphere of 95 air and 5% CO2 at 37° C.
Caco-2 cell monolayers were thus grown in a transwell system, which is a model for intestinal barrier function. The monolayers were pretreated for 24 h with different GLs, including beta3′-GL, alpha3′-GL, beta4′-GL and beta6′-GL in a concentration of 0.75 wt. % of the GL, before being exposed to the fungal toxin deoxynivalenol (DON), which is a trigger and model compound to impair intestinal barrier. DON was diluted to a final concentration of 4.2 μM in complete cell medium and added to the apical side as well as to the basolateral side of the transwell inserts. […] Incubation with DON was 24 h.
Measurements of the transepithelial electrical resistance (TEER) and lucifer yellow (LY) permeability were conducted to investigate barrier integrity. For TEER measurements a Millicel-ERS voltohmmeter connected to a pair of chopsticks electrodes was used to measure the TEER values. Results are expressed as a percentage of the initial value. For paracellular tracer flux assay the membrane impermeable lucifer yellow (LY) (Sigma, St Luis, Mo., USA) was added in a concentration of 16 μg/ml to the apical compartment in the transwell plate for 4 h, and the paracellular flux was determined by measuring the fluorescence intensity in the basolateral compartment with a spectrophotofluorimeter (FLUOstar Optima, BMG Labtech, Offenburg, Germany) set at excitation and emission wavelengths of 410 and 520 nm, respectively. Release of interleukin-8 (IL-8 or CXCL8), which is a typical marker for inflammation, was quantified in the medium of the apical side and the basolateral side of the Caco-2 transwell inserts in response to the treatments. CXCL8 concentrations were measured by using the human IL-8 ELISA assay (BD Biosciences, Pharmingem, San Diego, Calif., USA) according to manufacturer's instructions. For more details on materials and methods see Akbari et al, 2016, Eur J Nutr. 56(5):1919-1930.

The subject of the next test is Klebsiella pneumonia K2. The test is described as follows: Fecal slurry fermentation spiked with pathogens: Klebsiella. The conditions noted are these: inoculum of baby 2, spiked. The test is classed as cell-based. How it is done: as §1, §2
A 32 well plate that can handle low pH was used. The wells of this plate were filled with fecal solution. 2.5% (w/v) of the different sterile carbohydrate solutions (3′-GL, 2′-FL, 2′-FL/3′-GL (2.0+0.5%). and Glucose were added to the fecal slurry according to a template. […]

Where [2] appears, read: Caco-2 monolayer, DON 4.2 μM, 2′-FL 1 mg/ml.

On to `C[C@@H]1O[C@@H](O[C@H]2[C@H](O[C@H]3[C@H](O)[C@@H](O)C(O)O[C@@H]3CO)O[C@H](CO)[C@H](O)[C@@H]2O)[C@@H](O)[C@H](O)[C@@H]1O` (stereo partly drawn) [2′-FL, α-L-Fuc-(1→2)-β-D-Gal-(1→4)-D-Glc], for which the Growth of bifidobacteria entry with Bifidobacteria is reported as “Growth of bifidobacteria was observed”. The “extent of fermentation as measured by NaOH consumption, i.e. acid production” value in the test on fecal slurry microbiota (both inocula) is “slower and lower acidification”. Further, the “Immune cell activity as measured by WST, in words” value in test [1] is “significantly increased”. Besides, the “effect on DON-induced loss of epithelial barrier integrity (TEER, LY flux), in words” value in the test with Caco-2 cell monolayer is “statistically significantly prevent the DON induced reduction in TEER and increase in LYF”. Further, in the test on Caco-2 cell monolayer (setting [2]), the Lucifer yellow flux is given as 446.4 (8.302)^∧ ng/ml (cm^2xh) and the “TEER (% of initial value) Mean (s.e.)” value is reported as 42.79 (0.844)^∧∧ % of initial value.
For the molecule “Gal (beta 1-3)-Gal (beta 1-4)-Glc [3′-GL]”, the Growth of bifidobacteria entry in the test with Bifidobacteria was “Growth of bifidobacteria was observed”. Besides, in the test with Bifidobacteria (inoculum of baby 2), the effect on bifidobacteria result is “highest”. In addition, in the test on Klebsiella pneumonia K2, the Klebsiella growth entry is recorded as “most inhibited”. Besides, the “rate of initial acidification” value in the test on fecal slurry microbiota is reported as “high”. The “Immune cell activity as measured by WST, in words” value in test [1] is recorded as “decrease in activation”. Moreover, the “effect on DON-induced loss of epithelial barrier integrity (TEER, LY flux), in words” value in the test on Caco-2 cell monolayer is on record as “prevented the DON-induced loss of epithelial barrier integrity”.
